What was measured:
[1] = test system: guinea pig lung parenchymal tissue; test: Immunologically Mediated Contraction of the Parenchymal Strip (IMCPS); type: cell-based; conditions: Cavia porcellus, inhibition of egg albumin-induced contraction of sensitized guinea pig lung strip, 30 min preincubation, chlorpheniramine 10 μM and indomethacin 100 μM present, active if >=15%, read-out: IMCPS % Inhib @ 100 μM
Protocol: (a) Immunogically Mediated Contraction of the Parenchymal Strip (IMCPS)
It is a modification of the procedure published by K. Forsberg and L. Sorenby in Agents and Actions, Vol. 9 pp. 364-368 (1978). In this test, male Hartley strain guinea pigs weighting 400 to 600 g were sensitized by subcutaneous administration of chicken egg albumin (Sigma A-5503, 1.0 mg, 0.5% solution) and bordetella pertussis, 11×10^9 cells (MassachusettsPublic health Biological Labs) 4 to 8 weeks prior to the experiment. The animals were sacrificed, the heart and lungs were removed en bloc and placed in Krebs solution at room temperature. Lung strips (2.5 cm in length) were cut from the perihperal edge of each lobe. Two strips were removed from each animal and were trimmed to be of equal length. Each strip was suspended in an isolated organ bath (10.0 ml) containing oxygenated Krebs buffer solution at 37.5° C. then attached to a force displacement transducer (Grass FTO3) and placed under an initial tension of 1.0 g. The tissues were allowed to equilibrate for 45-60 min, during which the bathing solution was changed several times. At the end of the equilbration period, chlorpheniramine (10.0μM) and indomethacin (100.0μM) were added to eliminate the contribution of histamine and prostaglandins to the contractile response. The two tissues from each animal were matched so that one tissue served as a control and the test drug dissolved in DMSO was added to the bath containing the other tissue at a final concentration of 100μM. After 30 min, egg albumin was added to each bath and the contractile response was measured as milligrams of tension developed as recorded on a Grass Model 7D polygraph.
(§1) The results of the IMCPS and the HGALP tests, employing the administration of various illustrative compounds of the present invention, are shown in Table I. The compounds are of the formula (I) wherein R^1, R^2, R^3, A and Y are as shown, R^4 and R^5 are hydrogen and k is 3.

human granulocyte cells = test: Human granulocyte Assay for Lipoxygenase Products (HGALP); type: cell-based; conditions: inhibition of [3H]-lipoxygenase metabolite release; human granulocytes prelabeled with [3H]-arachidonic acid, 10 μM ionophore A23187, 14 μM indomethacin
Protocol: (b) Human granulocyte Assay for Lipoxygenase Products (HGALP)
This test is a measurement of the inhibition of the synthesis or relase of [3H]-labeled lipoxygenase metabolites released or generated from human granulocyte cells that are prelabeled with [3H]-arachidonic acid. These metabolites include the leukotrienes (e.g., LTB4) which are potent mediators of inflammation and allergy. In this test, a granulocyte enriched fraction is prepared from freshly drawn human blood (50 ml/donor) by standard techniques involving unit gravity separation on ficoll hypaque. […] After washing out unincorporated label, the radiolabeled cells are brought up in incubation buffer (Minimum Essential Medium containing 14 μM indomethacin) to a 10^7 cell/ml concentration. […] Cell suspensions are challeged with 10 μM ionophore A23187 to […], incubations are terminated by the addition of 1 ml ice cold phosphate buffered saline, and cells are pelleted by centrifugation. Supernatants are passed through C18 Sep Pak® cartridges which are then washed twice with 1 ml water. Lipoxygenase metabolites are eluted with two 1 ml volumes of methanol. Eluates are collected in scintillation vials and counted in Aqueous Counting Scintillant (ACS). Radioactivity eluted with methanol is a measure of lipoxygenase metabolites. Values are normalized to vehicle (5 μl DMSO) treated controls and expressed as percent inhibition. Triplicate determinations at each drug concentration are analyzed as log-dose response curves by linear regression analysis from which IC50 values are derived.
as §1

IC50 (human granulocyte cells)	SMILES	inhibition at 100 µM [1]
2.3 µM	CCCCCc1ccc(OCC(O)CCCCCCC(=O)O)cc1 (stereo not shown) [Example 13, 8-Hydroxy-9-(4-pentylphenoxy)nonanoic Acid]	6%
4.9 µM	CCCCCCCCCCCCC(=O)CC#CCCCC(=O)O [Example 4, 8-Oxo-5-eicosynoic Acid]	22%
13 µM	CCCCCc1ccc(OCC(S)CC#CCCCC(=O)O)cc1 (stereo not shown) [Example 12b, 8-Mercapto-9-(4-pentylphenoxy)-5-nonynoic acid]	29%
8 µM	CCCCCc1ccc(OCC(O)CC#CCCCC(=O)OC)cc1 (stereo not shown) [Example 8, Methyl 8-Hydroxy-9-(4-pentylphenoxy)-5-nonynoate]	14%
12 µM	CCCCCc1ccc(OCC(O)CC#CCCCC(=O)O)cc1 (stereo not shown) [Example 7b, 8-Hydroxy-9(4-pentylphenoxy)-5-nonynoic acid]	29%
14 µM	CCCCCc1ccc(OCC(O)C/C=C\CCCC(=O)OC)cc1 (stereo not shown) [Example 9, Methyl 8-Hydroxy-9-(4-pentylphenoxy)-5(Z)-nonenoate]	0%
13 µM	O=C(O)CCC/C=C\CC(O)CCc1ccccc1 (stereo not shown) [Example 6, 8-Hydroxy-10-phenyl-5(Z)-decenoic Acid]	9%
13 µM	CCCCCCCCCCCCC(=O)C/C=C\CCCC(=O)O [Example 3, 8-oxo-5-(Z)-eicosenoic Acid]	24%
14.2 µM	O=C(O)CCCC#CCC(O)CCc1ccccc1 (stereo not shown) [Example 5, 8-Hydroxy-10-phenyl-5-decynoic Acid Hydrate (10:1)]	9 to 14%
12 µM	CCCCCCCCCCCCC(O)CC#CCCCC(=O)O (stereo not shown) [Example 1d, 8-Hydroxy-5-eicosynoic acid]	20 to 43%
1.1 to 9.5 µM	CCCCCc1ccc(OCC(O)C/C=C\CCCC(=O)O)cc1 (stereo not shown) [Example 10, 8-Hydroxy-9-(4-pentylphenoxy)-5-(Z)-nonenoic acid]	28.5%
7.5 µM	CCCCCCCCCCCCC(O)C/C=C\CCCC(=O)O (stereo not shown) [Example 2, 8-Hydroxy-5(Z)-eicosenoic Acid]	19%
8.5 µM	CCCCCc1ccc(OCC(C/C=C\CCCC(=O)OC)SC(C)=O)cc1 (stereo not shown) [Example 11, Methyl 8-(Acetylthio)-9-(4-pentylphenoxy)-5-(Z)-nonenoate]	3%

SMILES	IC50 (human granulocyte cells)	inhibition at 100 µM [1]
CCCCCOc1ccc(OCC(O)CC#CCCCC(=O)O)cc1 (stereo not shown) [Example 14b, 8-Hydroxy-9-(4-pentoxyphenoxy)-5-nonynoic acid]	33 µM	0 to 30%
